Assays:
[1] = target: T1, EGFR (Homo sapiens, UniProt P00533, L858R/T790M); assay: Cell Degradation 1: EGFR degradation in H1975 cells, HTRF assay; assay type: cell-based; settings: 16 h treatment, EGFR degradation by HTRF
T1 construct: endogenous in cells; host or cells: H1975
Protocol: After 16 h treatment, add 100 μl 1×lysis buffer to each well; seal the plate and incubate 1 hour at room temperature on a plate shaker; Once the cells are lysed, 16 μL of cell lysate are transferred to a PE 384-well HTRF detection plate; 4 μL of pre-mixed HTRF antibodies are added to each well; Cover the plate with a plate sealer, spin 1000 rpm for 1 min, Incubate overnight at room temperature; Read on BMG PheraStar with HTRF protocol (337 nm-665 nm-620 nm).
(§1) The IC50 (DC50) value of a compound can be obtained by fitting the following equation Y=Bottom+(TOP−Bottom)/(1+((IC50/X)^hillslope))
(§2) Wherein, X and Y are known values, and IC50, Hillslope, Top and Bottom are the parameters obtained by fitting with software. Y is the inhibition percentage (calculated from the equation), X is the concentration of the compound; IC50 is the concentration of the compound when the 50% inhibition is reached. The smaller the IC50 value is, the stronger the inhibitory ability of the compound is. Vice versa, the higher the IC50 value is, the weaker the ability the inhibitory ability of the compound is; Hillslope represents the slope of the fitted curve, generally around 1*; Bottom represents the minimum value of the curve obtained by data fitting, which is generally 0%±20%; Top represents the maximum value of the curve obtained by data fitting, which is generally 100%±20%. The experimental data were fitted by calculating and analyzing with Dotmatics data analysis software.

[2] = target: T2, EGFR (Homo sapiens, UniProt P00533, DEL746-750); assay: Cell Degradation 2: EGFR degradation in HCC827 cells, HTRF assay; assay type: cell-based; settings: 16 h treatment, EGFR degradation by HTRF
T2 construct: endogenous in cells; host or cells: HCC827
T2 sequence (P00533 with tags, fused parts or gaps DEL746-750): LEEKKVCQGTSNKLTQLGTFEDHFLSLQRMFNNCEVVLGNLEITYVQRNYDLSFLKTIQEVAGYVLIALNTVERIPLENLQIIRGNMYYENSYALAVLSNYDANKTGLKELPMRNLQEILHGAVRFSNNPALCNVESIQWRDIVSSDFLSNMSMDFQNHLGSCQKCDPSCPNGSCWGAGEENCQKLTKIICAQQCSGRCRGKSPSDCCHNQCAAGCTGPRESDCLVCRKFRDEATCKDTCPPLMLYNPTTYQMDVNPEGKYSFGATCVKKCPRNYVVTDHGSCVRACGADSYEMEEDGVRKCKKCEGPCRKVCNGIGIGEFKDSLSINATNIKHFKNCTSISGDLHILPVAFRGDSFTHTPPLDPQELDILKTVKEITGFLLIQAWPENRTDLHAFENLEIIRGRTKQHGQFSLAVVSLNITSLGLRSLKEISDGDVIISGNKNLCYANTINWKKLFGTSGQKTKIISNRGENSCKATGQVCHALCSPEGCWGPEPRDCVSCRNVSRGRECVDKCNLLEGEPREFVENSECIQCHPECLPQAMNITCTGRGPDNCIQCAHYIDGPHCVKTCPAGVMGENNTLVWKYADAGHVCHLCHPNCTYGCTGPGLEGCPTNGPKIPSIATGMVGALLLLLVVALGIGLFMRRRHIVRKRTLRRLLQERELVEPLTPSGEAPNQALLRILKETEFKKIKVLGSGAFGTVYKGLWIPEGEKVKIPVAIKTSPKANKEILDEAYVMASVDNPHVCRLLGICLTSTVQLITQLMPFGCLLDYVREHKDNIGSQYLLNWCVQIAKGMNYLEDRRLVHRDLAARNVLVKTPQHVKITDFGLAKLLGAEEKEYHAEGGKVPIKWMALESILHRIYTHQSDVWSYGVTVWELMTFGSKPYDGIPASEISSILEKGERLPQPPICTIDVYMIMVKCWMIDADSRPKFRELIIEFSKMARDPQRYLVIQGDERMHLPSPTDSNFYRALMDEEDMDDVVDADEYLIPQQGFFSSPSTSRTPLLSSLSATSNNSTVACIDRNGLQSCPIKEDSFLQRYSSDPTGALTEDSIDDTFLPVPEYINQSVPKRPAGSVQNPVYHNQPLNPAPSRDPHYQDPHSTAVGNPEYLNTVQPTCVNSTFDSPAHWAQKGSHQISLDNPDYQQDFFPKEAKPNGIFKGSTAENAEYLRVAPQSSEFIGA
T2 sequence (Q96SW2 whole entry partner): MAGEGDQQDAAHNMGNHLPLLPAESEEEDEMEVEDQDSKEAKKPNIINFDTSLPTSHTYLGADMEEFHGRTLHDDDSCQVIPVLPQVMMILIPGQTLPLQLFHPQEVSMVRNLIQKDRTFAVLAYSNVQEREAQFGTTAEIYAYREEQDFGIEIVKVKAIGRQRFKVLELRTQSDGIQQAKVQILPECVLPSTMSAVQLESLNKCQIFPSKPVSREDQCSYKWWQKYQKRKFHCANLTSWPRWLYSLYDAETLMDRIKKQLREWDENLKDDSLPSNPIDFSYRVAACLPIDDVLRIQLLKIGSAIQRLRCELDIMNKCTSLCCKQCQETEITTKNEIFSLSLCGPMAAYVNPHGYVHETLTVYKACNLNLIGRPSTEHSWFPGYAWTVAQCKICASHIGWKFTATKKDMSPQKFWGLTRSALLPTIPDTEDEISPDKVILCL
Protocol: After 16 h treatment, add 100 μl 1×lysis buffer to each well; seal the plate and incubate 1 hour at room temperature on a plate shaker; Once the cells are lysed, 16 μl diluted (2 μL to 14 μl 1× lysisi buffer) cell lysate are transferred to a PE 384-well HTRF detection plate; 4 μL of pre-mixed HTRF antibodies are added to each well; Cover the plate with a plate sealer, spin 1000 rpm for 1 min, Incubate overnight at room temperature; Read on BMG PheraStar with HTRF protocol (337 nm-665 nm-620 nm).
as §1, §2

T1 sequence (P00533 25-1210 T790M/L858R): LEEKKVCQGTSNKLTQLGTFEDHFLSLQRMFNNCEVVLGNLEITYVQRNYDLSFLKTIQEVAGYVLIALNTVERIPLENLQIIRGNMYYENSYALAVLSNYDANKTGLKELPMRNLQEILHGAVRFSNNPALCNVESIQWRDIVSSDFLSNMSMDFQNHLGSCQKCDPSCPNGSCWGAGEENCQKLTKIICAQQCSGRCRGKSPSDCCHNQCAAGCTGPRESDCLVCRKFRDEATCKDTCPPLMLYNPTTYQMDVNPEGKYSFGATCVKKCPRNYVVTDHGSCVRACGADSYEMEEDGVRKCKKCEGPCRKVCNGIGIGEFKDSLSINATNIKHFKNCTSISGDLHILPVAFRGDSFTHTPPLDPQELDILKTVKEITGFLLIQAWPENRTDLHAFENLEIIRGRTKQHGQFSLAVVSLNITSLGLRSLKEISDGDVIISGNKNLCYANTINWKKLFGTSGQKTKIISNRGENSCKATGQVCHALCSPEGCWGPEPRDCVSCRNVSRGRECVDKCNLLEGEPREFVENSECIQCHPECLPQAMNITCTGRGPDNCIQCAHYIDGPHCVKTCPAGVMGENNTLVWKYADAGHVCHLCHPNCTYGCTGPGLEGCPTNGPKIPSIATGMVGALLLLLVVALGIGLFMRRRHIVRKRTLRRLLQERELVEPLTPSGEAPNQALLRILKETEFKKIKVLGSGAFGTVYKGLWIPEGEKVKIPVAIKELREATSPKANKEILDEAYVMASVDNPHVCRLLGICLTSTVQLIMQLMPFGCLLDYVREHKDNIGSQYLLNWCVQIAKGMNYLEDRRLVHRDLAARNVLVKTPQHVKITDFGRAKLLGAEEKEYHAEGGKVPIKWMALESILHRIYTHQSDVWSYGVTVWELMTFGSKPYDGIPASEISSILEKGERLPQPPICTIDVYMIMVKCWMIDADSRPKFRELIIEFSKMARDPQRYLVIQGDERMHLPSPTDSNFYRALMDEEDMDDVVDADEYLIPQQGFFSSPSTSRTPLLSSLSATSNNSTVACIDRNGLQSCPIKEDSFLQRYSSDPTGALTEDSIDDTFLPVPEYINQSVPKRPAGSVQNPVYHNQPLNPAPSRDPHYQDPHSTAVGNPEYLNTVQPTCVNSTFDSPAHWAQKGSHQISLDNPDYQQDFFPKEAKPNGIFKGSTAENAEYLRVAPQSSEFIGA

COc1cc(N2CCC(N3CCN(CCc4ccc(C5CCC(=O)NC5=O)cc4)CC3)CC2)ccc1Nc1nc(Nc2cccc3c2N(S(C)(=O)=O)CC3)c2cc[nH]c2n1 (stereo not drawn) [Example 21, 3-(4-(2-(4-(1-(3-methoxy-4-((4-((1-(methylsulfonyl)indolin-7-yl)amino)-7H-pyrrolo[2,3-d]pyrimidin-2-yl)amino)phenyl)piperidin-4-yl)piperazin-1-yl)ethyl)phenyl)piperidine-2,6-dione]
DC50 [1]: 0.0384 µM
DC50 [2]: 0.113 µM

COc1cc(N2CCC(N3CCN(C(=O)C4CCN(CC5CCN(c6ccc7c(c6)C(=O)N(C6CCC(=O)NC6=O)C7=O)CC5)CC4)CC3)CC2)c(C)cc1Nc1ncc(Br)c(Nc2cccc3c2N(S(C)(=O)=O)CC3)n1 (stereo not drawn) [Example 43, 5-(4-((4-(4-(1-(4-((5-bromo-4-((1-(methylsulfonyl)indolin-7-yl)amino)pyrimidin-2-yl)amino)-5-methoxy-2-methylphenyl)piperidin-4-yl)piperazine-1-carbonyl)piperidin-1-yl)methyl)piperidin-1-yl)-2-(2,6-dioxopiperidin-3-yl)isoindoline-1,3-dione]
DC50 [1]: 0.0491 µM
DC50 [2]: 0.0111 µM

CS(=O)(=O)N1CCc2cccc(Nc3nc(Nc4ccc(N5CCC(N6CCN(C(=O)CCN7CCC(c8ccc(C9CCC(=O)NC9=O)cc8)CC7)CC6)CC5)c(F)c4)nc4[nH]ccc34)c21 (stereo not drawn) [Example 11, 3-(4-(1-(3-(4-(1-(2-fluoro-4-((4-((1-(methylsulfonyl)indolin-7-yl)amino)-7H-pyrrolo[2,3-d]pyrimidin-2-yl)amino)phenyl)piperidin-4-yl)piperazin-1-yl)-3-oxopropyl)piperidin-4-yl)phenyl)piperidine-2,6-dione]
DC50 [1]: 0.0237 µM
DC50 [2]: 0.123 µM

CN(CCC1CCN(c2ccc(C3CCC(=O)NC3=O)cc2)CC1)C1CCN(c2ccc(Nc3ncc(Cl)c(Nc4cccc5c4N(S(C)(=O)=O)CC5)n3)c3c2CCO3)CC1 (stereo not drawn) [Example 49, 3-(4-(4-(2-((1-(7-((5-chloro-4-((1-(methylsulfonyl)indolin-7-yl)amino)pyrimidin-2-yl)amino)-2,3-dihydrobenzofuran-4-yl)piperidin-4-yl)(methyl)amino)ethyl)piperidin-1-yl)phenyl)piperidine-2,6-dione]
DC50 [1]: > 10 µM
DC50 [2]: 0.138 µM

CS(=O)(=O)N1CCc2cccc(Nc3nc(Nc4ccc(N5CCC(N6CCN(CCC7CCN(c8ccc(C9CCC(=O)NC9=O)c(C#N)c8)CC7)CC6)CC5)c(F)c4)nc4[nH]ccc34)c21 (stereo not drawn) [Example 10, 2-(2,6-dioxopiperidin-3-yl)-5-(4-(2-(4-(1-(2-fluoro-4-((4-((1-(methylsulfonyl)indolin-7-yl)amino)-7H-pyrrolo[2,3-d]pyrimidin-2-yl)amino)phenyl)piperidin-4-yl)piperazin-1-yl)ethyl)piperidin-1-yl)benzonitrile]
DC50 [1]: 0.0093 µM
DC50 [2]: > 10 µM

CS(=O)(=O)N1CCc2cccc(Nc3nc(Nc4ccc(N5CCC(N6CCN(CCC7CCN(c8ccc9c(c8)C(=O)N(C8CCC(=O)NC8=O)C9=O)CC7)CC6)CC5)c(F)c4)ncc3Cl)c21 (stereo not drawn) [Example 81, 5-(4-(2-(4-(1-(4-((5-chloro-4-((1-(methylsulfonyl)indolin-7-yl)amino)pyrimidin-2-yl)amino)-2-fluorophenyl)piperidin-4-yl)piperazin-1-yl)ethyl)piperidin-1-yl)-2-(2,6-dioxopiperidin-3-yl)isoindoline-1,3-dione]
DC50 [1]: 0.0122 µM
DC50 [2]: 0.0034 µM

CN(CCN1CCN(C2CCN(c3ccc(Nc4nc(Nc5cccc6c5N(S(C)(=O)=O)CC6)c5cc[nH]c5n4)cc3F)CC2)CC1)c1cccc(C2CCC(=O)NC2=O)c1 (stereo not drawn) [Example 6, 3-(3-((2-(4-(1-(2-fluoro-4-((4-((1-(methylsulfonyl)indolin-7-yl)amino)-7H-pyrrolo[2,3-d]pyrimidin-2-yl)amino)phenyl)piperidin-4-yl)piperazin-1-yl)ethyl)(methyl)amino)phenyl)piperidine-2,6-dione]
DC50 [1]: 0.0074 µM
DC50 [2]: 0.0293 µM

CS(=O)(=O)N1CCc2cccc(Nc3nc(Nc4ccc(N5CCC(N6CCN(CCc7ccc(C8CCC(=O)NC8=O)c(F)c7F)CC6)CC5)c(F)c4)nc4[nH]ccc34)c21 (stereo not drawn) [Example 69, 3-(2,3-difluoro-4-(2-(4-(1-(2-fluoro-4-((4-((1-(methylsulfonyl)indolin-7-yl)amino)-7H-pyrrolo[2,3-d]pyrimidin-2-yl)amino)phenyl)piperidin-4-yl)piperazin-1-yl)ethyl)phenyl)piperidine-2,6-dione]
DC50 [1]: 0.0108 µM
DC50 [2]: 0.0298 µM

CS(=O)(=O)N1CCc2cccc(Nc3nc(Nc4ccc(N5CCC(N6CCN(CC[C@H]7CCN(c8ccc(C9CCC(=O)NC9=O)cc8)C7)CC6)CC5)c(F)c4)nc4[nH]ccc34)c21 (stereo partly drawn) [Example 13, 3-(4-((S)-3-(2-(4-(1-(2-fluoro-4-((4-((1-(methylsulfonyl)indolin-7-yl)amino)-7H-pyrrolo[2,3-d]pyrimidin-2-yl)amino)phenyl)piperidin-4-yl)piperazin-1-yl)ethyl)pyrrolidin-1-yl)phenyl)piperidine-2,6-dione]
DC50 [1]: 0.0111 µM
DC50 [2]: 0.0293 µM

COc1cc(Nc2nc(Nc3cccc4c3N(S(C)(=O)=O)CC4)c3cc[nH]c3n2)ccc1N1CCC(N2CCN(C(=O)[C@H]3CCN(c4ccc5c(c4)C(=O)N(C4CCC(=O)NC4=O)C5=O)C3)CC2)CC1 (stereo partly drawn) [Example 74, 2-(2,6-dioxopiperidin-3-yl)-5-((S)-3-(4-(1-(2-methoxy-4-((4-((1-(methylsulfonyl)indolin-7-yl)amino)-7H-pyrrolo[2,3-d]pyrimidin-2-yl)amino)phenyl)piperidin-4-yl)piperazine-1-carbonyl)pyrrolidin-1-yl)isoindoline-1,3-dione]
DC50 [1]: 0.0047 µM
DC50 [2]: > 10 µM

COc1cc(N2CCC(N3CCN(CCC4CCN(c5ccc(C6CCC(=O)NC6=O)c(F)c5)CC4)CC3)CC2)c(C)cc1Nc1ncc(Br)c(Nc2cccc3c2N(S(C)(=O)=O)CC3)n1 (stereo not drawn) [Example 90, 3-(4-(4-(2-(4-(1-(4-((5-bromo-4-((1-(methylsulfonyl)indolin-7-yl)amino)pyrimidin-2-yl)amino)-5-methoxy-2-methylphenyl)piperidin-4-yl)piperazin-1-yl)ethyl)piperidin-1-yl)-2-fluorophenyl)piperidine-2,6-dione]
DC50 [1]: 0.0964 µM
DC50 [2]: 0.0402 µM

CS(=O)(=O)N1CCc2cccc(Nc3nc(Nc4ccc(N5CCC(N6CCN(CCOc7cccc8c7CN(C7CCC(=O)NC7=O)C8=O)CC6)CC5)c(F)c4)nc4[nH]ccc34)c21 (stereo not drawn) [Example 20, 3-(4-(2-(4-(1-(2-fluoro-4-((4-((1-(methylsulfonyl)indolin-7-yl)amino)-7H-pyrrolo[2,3-d]pyrimidin-2-yl)amino)phenyl)piperidin-4-yl)piperazin-1-yl)ethoxy)-1-oxoisoindolin-2-yl)piperidine-2,6-dione]
DC50 [1]: 0.0097 µM
DC50 [2]: 0.0147 µM

CS(=O)(=O)N1CCc2cccc(Nc3nc(Nc4ccc(N5CCC(N6CCN(C(=O)CC7CN(c8ccc9c(c8)C(=O)N(C8CCC(=O)NC8=O)C9=O)C7)CC6)CC5)c(F)c4)nc4[nH]ccc34)c21 (stereo not drawn) [Example 61, 2-(2,6-dioxopiperidin-3-yl)-5-(3-(2-(4-(1-(2-fluoro-4-((4-((1-(methylsulfonyl)indolin-7-yl)amino)-7H-pyrrolo[2,3-d]pyrimidin-2-yl)amino)phenyl)piperidin-4-yl)piperazin-1-yl)-2-oxoethyl)azetidin-1-yl)isoindoline-1,3-dione]
DC50 [1]: 0.0057 µM
DC50 [2]: 0.0194 µM

CS(=O)(=O)N1CCc2cccc(Nc3nc(Nc4ccc(N5CCC(N6CCN(CCC7CCN(c8ccc9c(c8)CN(C8CCC(=O)NC8=O)C9=O)CC7)CC6)CC5)c(F)c4)nc4[nH]ccc34)c21 (stereo not drawn) [Example 18, 3-(5-(4-(2-(4-(1-(2-fluoro-4-((4-((1-(methylsulfonyl)indolin-7-yl)amino)-7H-pyrrolo[2,3-d]pyrimidin-2-yl)amino)phenyl)piperidin-4-yl)piperazin-1-yl)ethyl)piperidin-1-yl)-1-oxoisoindolin-2-yl)piperidine-2,6-dione]
DC50 [1]: 0.0141 µM
DC50 [2]: 0.0108 µM

CS(=O)(=O)N1CCc2cccc(Nc3nc(Nc4ccc(N5CCC(N6CCN(CCC7CCN(c8ccc9c(c8)C(=O)N(C8CCC(=O)NC8=O)C9=O)CC7)CC6)CC5)c(F)c4)nc4[nH]ccc34)c21 (stereo not drawn) [Example 17, 2-(2,6-dioxopiperidin-3-yl)-5-(4-(2-(4-(1-(2-fluoro-4-((4-((1-(methylsulfonyl)indolin-7-yl)amino)-7H-pyrrolo[2,3-d]pyrimidin-2-yl)amino)phenyl)piperidin-4-yl)piperazin-1-yl)ethyl)piperidin-1-yl)isoindoline-1,3-dione]
DC50 [1]: 0.0096 µM
DC50 [2]: 0.0308 µM

Source: patent publication US12643903B2, “Bifunctional compounds for degradation of EGFR and related methods of use” (BeiGene, Ltd., priority 2020, dated 2026)
